The text below walks through data of patent US9994890B1, “Methods of natural product drug discovery” (priority 2012, dated 2018).

Like-named read-outs stand apart in the source and are kept apart here. Starred links: 1 amine or outer side, 2 acyl side, 3 side chain; linkers in the order of their positions; H or OH if unused. Positions of bridges follow the written chain, without caps; N, C: chain ends. Non-standard residues stand in square brackets, D forms with d. Residues, ends and D or L forms follow the SMILES beside them. Chains are numbered I, II in the order given. Actinocin(9to1) = Cc1c2oc3c(C)ccc(C(=O)[*:1])c3nc-2c(C(=O)[*:2])c(N)c1=O; NMeV = CN[C@H](C(=O)O)C(C)C; Sar = CNCC(=O)O

The test system of test [1] is ten strains of Staphylococcus aureus, each resistant to a different, known, antibiotic. In words: Small scale experiment: panel of ten resistant strains in a microplate. The test is classed as cell-based. As to conditions: Example 1, FIG. 1. As to the method: In a small scale experiment, ten strains of Staphylococcus aureus, each resistant to a different, known, antibiotic, were generated. These strains were added to the wells of a microplate. […] Thus, it was determined that each strain of Staphylococcus aureus was resistant to at least one of ten known antibiotics (FIG. 1).
In this way, it was shown that linezolid was not part of the initial set of ten antibiotics. In other words, the panel of ten Staphylococcus aureus strains used allowed dereplication of the ten antibiotics with no need for analytical chemistry. This experiment establishes that the panel of ten strains can be scaled up to several thousand strains, which will be collectively resistant to as many known antibiotics, and screen sources of unknown compounds (e.g., microbial or eukaryotic cell spent media, cell and tissue extracts, combinatorial libraries, etc.). Using such a large scale screen allows identification of a source containing an antimicrobial activity that is unique from the thousands of known antibiotics, and thus a likely source of a novel antibiotic. Similarly, and using either microbial spent media or individual compounds from chemical libraries, a search can be performed for novel compounds with anticancer, anti-inflammatory, or other desired properties.

The subject of another test is S. aureus strain RN4220. In words: MIC determination, wildtype strain RN4220 (96-well dilution series, Mueller-Hinton broth). The test is classed as cell-based, Staphylococcus aureus. As to conditions: for MIC: Staphylococcus aureus, RN4220. As to the method:
(§1) The majority of mutants were obtained by selection of the S. aureus strain RN4220 on agar plates in presence of an antibiotic. Briefly, the minimal inhibitory concentration (“MIC”) of the wildtype strain RN4220 was determined. For this purpose a liquid culture with an OD of 0.5 was added as a dilution of 1:100 in Mueller-Hinton broth to each well of a 96-well plate containing a dilution series of a certain antibiotic. The 96-well plate was incubated at 37° C. overnight. The lowest antibiotic concentration where no growth of bacteria could be determined is defined as the MIC value of this strain.

The test system of test [2] is mutants obtained by selection of the S. aureus strain RN4220. In words: MIC determination, mutants obtained by selection on antibiotic agar. Format: cell-based, Staphylococcus aureus. As to conditions: for MIC: Staphylococcus aureus, read-out: MIC of the mutant; for MIC of the mutant: Table 1, mutant resistant to the antibiotic of the same line. As for the experimental part:
as §1
To select first-step mutants agar plates containing an antibiotic concentration of 0.5×-, 1×-, 2×-, 3×- and 5×MIC were prepared and approximately 1×10^8 cells were plated and incubated overnight. Colonies grown on the plate with the highest antibiotic concentration were subcultured in liquid MH-media containing the same concentration of antibiotic to avoid loss of resistance. This culture was used to prepare a 25% glycerol stock that is stored at −80° C. To test the stability of resistance each strain was subcultured again either in presence of an antibiotic or in media without any antibiotics. After that both cultures were plated on agar plates. In case of a stable mutation that leads to the resistance no difference in growth behavior of the liquid culture or the cultures plated on agar plates should be noticed. The MIC of the mutants was determined.
After the successful selection of eight first-step mutants the experiment was repeated in a same manner as described above to obtain mutants having a resistance to much higher concentration of antibiotic. With the exception of the actinomycin D mutant, additional mutants were obtained. Again the MIC-values for the new mutants were determined.

Test [3] has as its system strains NRS106, NRS107, NRS128 and NRS129. The test is described as follows: MIC determination, mutants purchased from NARSA. Format: cell-based, Staphylococcus aureus. Conditions: for MIC: Staphylococcus aureus, read-out: MIC of the mutant. As for the experimental part:
Four strains from NARSA (Network on Antimicrobial Resistance in Staphylococcus aureus) could be purchased. The strains NRS106, NRS107, NRS128 and NRS129 show resistances against the antibiotics gentamicin, mupirocin, erythromycin and chloramphenicol.
as §1

The mark [4] stands for this setting: Table 1, 37° C. overnight, read-out: MIC of wildtype RN4220.
The mark [5] stands for this setting: Table 2, read-out: MIC of wilcitype RN4220.

As for `CC(=O)NC[C@H]1CN(c2ccc(N3CCOCC3)c(F)c2)C(=O)O1` [linezolid], the “microbial growth in the wells containing the ten resistant strains” value in test [1] is reported as “suppressed the growth in all the wells”. On to `CC1COc2c(N3CCN(C)CC3)c(F)cc3c(=O)c(C(=O)O)cn1c23` (centres unmarked) [Ofloxacin], for which the MIC is 0.4 µg/mL in the test with S. aureus strain RN4220 (setting [4]) and 1.5 µg/mL in test [2]. On to `CN(C)[C@@H]1C(=O)C(C(N)=O)=C(O)[C@@]2(O)C(=O)C3=C(O)c4c(O)cccc4[C@@](C)(O)[C@H]3C[C@@H]12` [Tetracyclin], for which the “MIC of wildtype RN4220” value with S. aureus strain RN4220 (Table 1, 37° C. overnight) worked out at 0.1 µg/mL. The “MIC of the mutant” value in test [2] came to 3.9 µg/mL. As for `CC1(C)S[C@@H]2[C@H](NC(=O)[C@H](N)c3ccccc3)C(=O)N2[C@H]1C(=O)O` [Ampicillin], the values for the MIC (in the test on S. aureus strain RN4220 (setting [4]); in test [2]) were 0.2 µg/mL and 300 µg/mL, respectively.

Take `Cc1c2oc3c(C)ccc(C(=O)N[C@@H]4C(=O)N[C@H](C(C)C)C(=O)N5CCC[C@H]5C(=O)N(C)CC(=O)N(C)[C@@H](C(C)C)C(=O)O[C@@H]4C)c3nc-2c(C(=O)N[C@@H]2C(=O)N[C@H](C(C)C)C(=O)N3CCC[C@H]3C(=O)N(C)CC(=O)N(C)[C@@H](C(C)C)C(=O)O[C@@H]2C)c(N)c1=O` [Actinomycin D] (I: T[dV]P[Sar][NMeV] / II: T[dV]P[Sar][NMeV]; ester I:1-I:C, II:1-II:C; linker I:N-II:N via Actinocin(9to1)): the “MIC of wildtype RN4220” value in the test with S. aureus strain RN4220 (Table 1, 37° C. overnight) was determined as 1.56 µg/mL. The “MIC of the mutant” value in test [2] was 12.48 µg/mL. As for `O=C(N[C@H](CO)[C@H](O)c1ccc([N+](=O)[O-])cc1)C(Cl)Cl` [Chloramphenicol], the figures for the MIC (with S. aureus strain RN4220 (setting [5]); in test [3]) were 62.5 µg/mL and 12.5 µg/mL, respectively. As to `CO[C@H]1/C=C/O[C@@]2(C)Oc3c(C)c(O)c4c(O)c(c(/C=N/N5CCN(C)CC5)c(O)c4c3C2=O)NC(=O)/C(C)=C\C=C\[C@H](C)[C@H](O)[C@@H](C)[C@@H](O)[C@@H](C)[C@H](OC(C)=O)[C@@H]1C` [Rifampicin], the MIC with S. aureus strain RN4220 (setting [4]) amounted to 0.008 µg/mL; in test [2] it was 250 µg/mL. In the case of `C/C(=C\C(=O)OCCCCCCCCC(=O)O)C[C@@H]1OC[C@H](C[C@@H]2O[C@H]2[C@@H](C)[C@H](C)O)[C@@H](O)[C@H]1O` [Mupirocin], the MIC in the test on S. aureus strain RN4220 (setting [5]) was 500 µg/mL; in test [3] it was 25 µg/mL. In the case of Gentamicin, the “MIC of wilcitype RN4220” value in the test on S. aureus strain RN4220 (Table 2) was 250 µg/mL. Also, the “MIC of the mutant” value in test [3] (Table 2, NARSA strain named in the same line) was 0.8 µg/mL. Regarding `CO[C@@H]1[C@@H](OC(N)=O)[C@@H](O)[C@H](Oc2ccc3c(O)c(NC(=O)c4ccc(O)c(CC=C(C)C)c4)c(=O)oc3c2C)OC1(C)C` [Novobiocin], the values for the MIC (in the test with S. aureus strain RN4220 (setting [4]); in test [2]) were 0.05 µg/mL and 12.5 µg/mL, respectively. For `CC[C@H]1OC(=O)[C@H](C)[C@@H](O[C@H]2C[C@@](C)(OC)[C@@H](O)[C@H](C)O2)[C@H](C)[C@@H](O[C@@H]2O[C@H](C)C[C@H](N(C)C)[C@H]2O)[C@](C)(O)C[C@@H](C)C(=O)[C@H](C)[C@@H](O)[C@]1(C)O` [Erythromycin], the MIC in test [3] was 0.8 µg/mL. With `[H]/N=C(/N)N[C@H]1[C@H](O)[C@@H](O)[C@H](O[C@@H]2O[C@@H](C)[C@](O)(C=O)[C@H]2O[C@@H]2O[C@@H](CO)[C@H](O)[C@@H](O)[C@@H]2NC)[C@@H](N/C(N)=N\[H])[C@@H]1O` [Streptomycin], the MIC with S. aureus strain RN4220 (setting [4]) worked out at 25 µg/mL. `CN[C@H](CC(C)C)C(=O)N[C@H]1C(=O)N[C@@H](CC(N)=O)C(=O)N[C@H]2C(=O)N[C@H]3C(=O)N[C@H](C(=O)N[C@H](C(=O)O)c4cc(O)cc(O)c4-c4cc3ccc4O)[C@H](O)c3ccc(c(Cl)c3)Oc3cc2cc(c3O[C@@H]2O[C@H](CO)[C@@H](O)[C@H](O)[C@H]2O[C@H]2C[C@](C)(N)[C@H](O)[C@H](C)O2)Oc2ccc(cc2Cl)[C@H]1O` [Vancomycin]: the results for the MIC (with S. aureus strain RN4220 (setting [4]); in test [2]) were 1.56 µg/mL and 2000 µg/mL, respectively.

As usually defined, the MIC is the smallest concentration in the dilution series that meets the test's criterion for growth inhibition.
